As a reminder, the IC50 is the midpoint of a concentration-inhibition curve. Low readings indicate higher potency, high ones lower potency.

The first test relates to Plasmodium falciparum 3D7. The experiment in a line: P. falciparum 3D7 asexual blood stage assay, Assay Procedure Version 2 (SYBR green readout). The class given is cell-based. As to conditions: Plasmodium falciparum, 3D7, Erythrocyte, 72 h, Version 2 of the assay procedure (asterisk *); 72 h incubation in infected erythrocytes; 50,000 nM to 15 nM. The method in brief: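 Parasite growth read as DNA fluorescence (SYBR green lysis overnight, ex 485/em 528 nm) after 72 h drug exposure of 3D7-infected erythrocytes at 0.5% parasitaemia, 5% haematocrit, 37 °C under 1% O2/3% CO2. Compounds tested 15–50,000 nM final, 0.5% DMSO; normalised to mefloquine (100%) and DMSO (0%), biphasic two-site EC50 fitting.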
Regarding `C[C@@]1(c2cccc(Nc3ccn4nccc4c3)c2Cl)CC(=O)N(C2CCOCC2)C(=N)N1` [Example 91, (6S)-6-[2-Chloro-3-(pyrazolo-[1,5-a]pyridin-5-ylamino)-phenyl]-2-imino-6-methyl-3-(tetrahydropyran-4-yl)-hexahydropyrimidin-4-one], the IC50 came to 896 nM. For the compound `C[C@@]1(c2cccc(Nc3ccc(OC(F)F)nc3)c2Cl)CC(=O)N(C2CCOCC2)C(=N)N1` [Example 42, (6S)-6-(2-Chloro-3-{[6-(difluoromethoxy)pyridin-3-yl]-amino}phenyl)-2-imino-6-methyl-3-(tetrahydropyran-4-yl)hexahydropyrimidin-4-one], the IC50 worked out at 269 nM.

For `Cc1ccc(Nc2cccc([C@]3(C)CC(=O)N([C@H]4CCO[C@H](C)C4)C(=N)N3)c2Cl)cn1` (single isomer, unassigned; peak 1) [Example 195, (6S)-6-(2-Chloro-3-[(6-methyl-pyridin-3-yl)amino]phenyl}-2-imino-6-methyl-3-[(2R*,4S*)-2-methyltetrahydropyran-4-yl]-hexahydropyrimidin-4-one (Peak 1)], the IC50 came to 244 nM. Take `C[C@@]1(c2cccc(Nc3ncccc3C#N)c2Cl)CC(=O)N(C2CCOCC2)C(=N)N1` [Example 184, 2-{2-Chloro-3-[(4S)-2-imino-4-methyl-6-oxo-1-(tetrahydro-pyran-4-yl)hexahydropyrimidin-4-yl]anilino}pyridine-3-carbo-nitrile]: the IC50 is 217 nM.

For the compound `Cc1ccc(Nc2cccc([C@]3(C)CC(=O)N([C@@H]4CCO[C@@H](C)C4)C(=N)N3)c2Cl)cn1` (single isomer, unassigned; peak 2) [Example 196, (6S)-6-{2-Chloro-3-[(6-methyl-pyridin-3-yl)amino]phenyl}-2-imino-6-methyl-3-[(2S*,4R*)-2-methyltetrahydropyran-4-yl]-hexahydropyrimidin-4-one (Peak 2)], half-maximal inhibition (IC50) was put at 552 nM. `C[C@@]1(c2cccc(Nc3cncc4ccccc34)c2Cl)CC(=O)N(C2CCOCC2)C(=N)N1` [Example 46, (6S)-6-[2-Chloro-3-(isoquinolin-4-ylamino)phenyl]-2-imino-6-methyl-3-(tetrahydropyran-4-yl)hexahydropyrimidin-4-one]: the IC50 came to 425 nM. Consider `C[C@@]1(c2cccc(Nc3ccc(F)cc3C#N)c2Cl)CC(=O)N([C@H]2C[C@@](C)(O)C2)C(=N)N1` [Example 127, 2-{2-Chloro-3-[(4S)-1-(3-hydroxy-3-methylcyclobutyl)-2-imino-4-methyl-6-oxo-hexahydropyrimidin-4-yl]-anilino}-5-fluorobenzonitrile], for which the IC50 is 184 nM. Same read-out and setting: the figure for `C[C@@]1(c2cccc(Nc3ccc(C#N)cc3)c2Cl)CC(=O)N([C@H]2C[C@@](C)(O)C2)C(=N)N1` [Example 123, 4-{2-Chloro-3-[(4S)-1-(3-hydroxy-3-methylcyclobutyl)-2-imino-4-methyl-6-oxo-hexahydropyrimidin-4-yl]-anilino}benzonitrile] is 552 nM; for `C[C@H]1C[C@@H](N2C(=N)N[C@](C)(c3cccc(Nc4ccc(C5CC5)nc4)c3Cl)CC2=O)CCO1` (relative stereo) [Example 199, (6S)-6-{2-Chloro-3-[(6-cyclo-propylpyridin-3-yl)amino]-phenyl}-2-imino-6-methyl-3-[(2S*,4S*)-2-methyltetrahydro-pyran-4-yl]hexahydropyrimidin-4-one] it is 309 nM; for `C[C@@]1(c2cccc(Nc3ccc(C#N)cn3)c2Cl)CC(=O)N(C2CCOCC2)C(=N)N1` [Example 183, 6-{2-Chloro-3-[(4S)-2-imino-4-methyl-6-oxo-1-(tetrahydro-pyran-4-yl)hexahydropyrimidin-4-yl]anilino}pyridine-3-carbo-nitrile] it is 582 nM. As to `C[C@@H]1C[C@H](N2C(=N)N[C@](C)(c3cccc(Nc4ccc(C5CC5)nc4)c3Cl)CC2=O)CCO1` (relative stereo) [Example 198, (6S)-6-{2-Chloro-3-[(6-cyclo-propylpyridin-3-yl)amino]-phenyl}-2-imino-6-methyl-3-[(2R*,4R*)-2-methyltetrahydro-pyran-4-yl]hexahydropyrimidin-4-one], the IC50 amounted to 22 nM. `C[C@@]1(c2cccc(Nc3cccc(-c4ccno4)c3)c2Cl)CC(=O)N(C2CCOCC2)C(=N)N1` [Example 61, (6S)-6-{2-Chloro-3-[3-(isoxazol-5-yl)anilino]phenyl}-2-imino-6-methyl-3-(tetrahydro-pyran-4-yl)hexahydropyrimidin-4-one] showed an IC50 of 753 nM. `C[C@@]1(c2cccc(Nc3ccc(F)cc3C#N)c2Cl)CC(=O)N(C2CCOCC2)C(=N)N1` [Example 82, 2-{2-Chloro-3-[(4S)-2-imino-4-methyl-6-oxo-1-(tetrahydro-pyran-4-yl)hexahydropyrimidin-4-yl]anilino}-5-fluorobenzo-nitrile] gave an IC50 of 137 nM. Compound `C[C@@]1(c2cccc(Nc3ccccc3OC(F)F)c2Cl)CC(=O)N(C2CCOCC2)C(=N)N1` [Example 66, (6S)-6-{2-Chloro-3-[2-(difluoro-methoxy)anilino]phenyl}-2-imino-6-methyl-3-(tetrahydro-pyran-4-yl)hexahydropyrimidin-4-one] registered an IC50 of 217 nM. Compound `C[C@@]1(c2cccc(Nc3ccc(-c4ccccc4)cc3)c2Cl)CC(=O)N(C2CCOCC2)C(=N)N1` [Example 71, (6S)-6-[2-Chloro-3-(4-phenyl-anilino)phenyl]-2-imino-6-methyl-3-(tetrahydropyran-4-yl)hexahydropyrimidin-4-one] gave an IC50 of 3530 nM. `Cn1nnc(-c2ccc(Nc3cccc([C@]4(C)CC(=O)N(C5CCOCC5)C(=N)N4)c3Cl)cn2)n1` [Example 117, (6S)-6-(2-Chloro-3-{[6-(2-methyltetrazol-5-yl)pyridin-3-yl]amino}phenyl)-2-imino-6-methyl-3-(tetrahydropyran-4-yl)hexahydropyrimidin-4-one] returned an IC50 of 707 nM. Take `CC[C@]1(O)C[C@H](N2C(=N)N[C@](C)(c3cccc(Nc4ccc(F)cc4)c3Cl)CC2=O)C1` [Example 177, (6S)-6-[2-Chloro-3-(4-fluoro-anilino)phenyl]-3-(3-ethyl-3-hydroxycyclobutyl)-2-imino-6-methylhexahydropyrimidin-4-one (trans isomer)]: the IC50 worked out at 2450 nM.

`C[C@@]1(c2cccc(Nc3ccc(-n4cncn4)nc3)c2Cl)CC(=O)N(C2CCOCC2)C(=N)N1` [Example 114, (6S)-6-(2-Chloro-3-{[6-(1,2,4-triazol-1-yl)pyridin-3-yl]-amino}phenyl)-2-imino-6-methyl-3-(tetrahydropyran-4-yl)hexahydropyrimidin-4-one] registered an IC50 of 519 nM. Compound `CCc1ccc(Nc2cccc([C@]3(C)CC(=O)N(C4CCOCC4)C(=N)N3)c2Cl)cn1` [Example 111, (6S)-6-{2-Chloro-3-[(6-ethyl-pyridin-3-yl)amino]phenyl}-2-imino-6-methyl-3-(tetrahydro-pyran-4-yl)hexahydropyrimidin-4-one] displayed an IC50 of 248 nM. The compound `COc1cc(Nc2cccc([C@]3(C)CC(=O)N(C4CCOCC4)C(=N)N3)c2Cl)ccn1` [Example 87, (6S)-6-{2-Chloro-3-[(2-methoxypyridin-4-yl)amino]-phenyl}-2-imino-6-methyl-3-(tetrahydropyran-4-yl)-hexahydropyrimidin-4-one] came in with an IC50 of 666 nM. Regarding `C[C@@]1(c2cccc(Nc3ccc(OC(F)F)nc3)c2Cl)CC(=O)N([C@@H]2C[C@H]3CC[C@@H](C2)O3)C(=N)N1` (mixture of isomers) [Example 156, (6S)-6-(2-Chloro-3-{[6-(difluoromethoxy)pyridin-3-yl]-amino}phenyl)-2-imino-6-methyl-3-[(1SR,5RS)-8-oxa-bicyclo[3.2.1]octan-3-yl]-hexahydropyrimidin-4-one], it took 2980 nM to reach half-maximal inhibition (IC50). Compound `Cc1ncc(Nc2cccc([C@]3(C)CC(=O)N(C4CCOCC4)C(=N)N3)c2Cl)c2ccccc12` [Example 90, (6S)-6-{2-Chloro-3-[(1-methyl-isoquinolin-4-yl)amino]phenyl}-2-imino-6-methyl-3-(tetrahydro-pyran-4-yl)hexahydropyrimidin-4-one] came in with an IC50 of 3110 nM. Take `C[C@@]1(c2cccc(Nc3ccc(C(F)(F)F)nc3)c2Cl)CC(=O)N([C@H]2C[C@@](C)(O)C2)C(=N)N1` [Example 124, (6S)-6-(2-Chloro-3-{[6-(trifluoromethyl)pyridin-3-yl]-amino}phenyl)-3-(3-hydroxy-3-methylcyclobutyl)-2-imino-6-methylhexahydropyrimidin-4-one]: inhibition was half-maximal at 509 nM (IC50).

The same test, now with this note: Version 2 of the assay procedure (asterisk *); 72 h incubation in infected erythrocytes; 50,000 nM to 15 nM.
In the case of `CC1(C)CC(N2C(=N)N[C@](C)(c3cccc(Nc4ccc(C5CC5)nc4)c3Cl)CC2=O)CCO1` (single isomer, unassigned) [Example 147, (6S)-6-{2-Chloro-3-[(6-cyclo-propylpyridin-3-yl)amino]-phenyl}-3-[(4S*)-2,2-dimethyl-tetrahydropyran-4-yl]-2-imino-6-methylhexahydropyrimidin-4-one], the midpoint of inhibition, the IC50, lay at 287 nM.

`CC1(C#N)CC(N2C(=N)N[C@](C)(c3cccc(Nc4ccc(F)cc4)c3Cl)CC2=O)C1` [Example 181, 3-{(4S)-4-[2-Chloro-3-(4-fluoroanilino)phenyl]-2-imino-4-methyl-6-oxohexahydro-pyrimidin-1-yl}-1-methyl-cyclobutanecarbonitrile (cis isomer)] showed an IC50 of 201 nM. `CC1(C)CC(N2C(=N)N[C@](C)(c3cccc(Nc4ccc(OC(F)F)nc4)c3Cl)CC2=O)CCO1` (single isomer, unassigned) [Example 143, (6S)-6-(2-Chloro-3-{[6-(difluoromethoxy)pyridin-3-yl]-amino}phenyl)-3-[(4R*)-2,2-dimethyltetrahydropyran-4-yl]-2-imino-6-methylhexahydro-pyrimidin-4-one]: half-maximal inhibition (IC50) was put at 996 nM.

Source of the values: patent publication US11479546B2, “Antimalarial hexahydropyrimidine analogues” (UCB Biopharma SRL, priority 2018, dated 2022).
